The target in assay [1] is human DNA ligase I (Homo sapiens, UniProt P18858). The experiment in a line: nick-sealing DNA ligase assay (gel electrophoresis), DNA ligase I. It is filed as biochemical. The note with it: ATP 10 μM, DNA substrate 50 nM, human DNA ligase I 0.5 nM; for IC50: read-out: IC50 against human DNA ligase I (converted). The method, then:
In this study, a standard nick-sealing assay was used to identify potential human DNA ligase inhibitors from representative flavonoids. […] Selected flavonoids with the resorcinol moiety in their A rings were tested as potential DNA ligase inhibitors. Epigallocatechin gallate (EGCG) is also a flavonoid found in plants, herbs, fruits, and green tea. Rutin is a flavonoid glycoside combining the flavonol quercetin and the disaccharide rutinose found in a wide variety of plants, including citrus. Quercetin is a plant flavonoid found in many fruits, vegetables, and other foods.
Figure 3 The effects of selected flavonoids on human DNA ligase I activity. DNA ligase assays were performed in reaction mixtures in the presence of ATP (10 μM), DNA substrate (50 nM), and human DNA ligase I (0.5 nM) as previously described.
Figure 4 The effects of cyaniding and rosinidin on human DNA ligase I activity. DNA ligase assays were performed in reaction mixtures in the presence of ATP (10 μM), DNA substrate (50 nM), and human DNA ligase I (0.5 nM) as previously described.
(§1) A 39 base pair nicked duplex was constructed and used as a substrate for the ligase reaction. In brief, the first 19 base pair oligonucleotide (5′-CGTAAAACGACGGCCAGTG-3′) and the second 20 base pair oligonucleotide (5′-[…]-3′) labeled with radioactive ^32P were annealed to the complementary 39 base pair oligonucleotide (5′-[…]-3′) to construct a 39 base pair nicked duplex as previously described. The resulting nicked duplex DNA was purified via 8% nondenaturing polyacrylamide gel electrophoresis.
(§2) DNA ligase I activity was routinely assayed according to a modified procedure described previously by determining the ligation of two oligonucleotides, which are hybridized to a complementary 39-mer oligonucleotide. Ligation of 5′-[^32P] end-labeled 20-mer oligonucleotide to the unlabeled 19-mer oligonucleotide was analyzed via polyacrylamide gel electrophoresis in the presence of 8 M urea. The assays were performed at least twice, and representative data are shown in this paper.

The test system of assay [2] is γH2AX protein. The experiment in a line: γH2AX protein level in Caco-2 cells (Western blot). It is filed as cell-based, human. Particulars: 48 h, versus solvent control. The source says: (§3) Some flavonoids are known to be cytotoxic to different types of human cancer cell lines. […] Phase contrast views reveal that rutin-treated cells are relatively thin and shrunken, consistent with the reduced cellular densities commonly observed in cultures exposed to cytotoxic agents (Figure 7A). […] The γH2AX is a sensitive and selective marker for DSBs, as phosphorylation of H2AX (γH2AX) is increased at such breakage sites. […] Phase contrast micrographs of Caco-2 cells treated with various concentrations of rutin for 48 h. Photographs taken at 10× magnification: (A) increased expressions of γH2AX protein in Caco-2 cells incubated with rutin for 48 h, compared with corresponding solvent control group, as measured via Western blot (B).
Background: In western blotting, separated proteins are transferred to a membrane and probed.

The test system of assay [3] is Caco-2 cells. The experiment in a line: Caco-2 cell growth and morphology (phase contrast microscopy). It is filed as cell-based, human.
Text: as §3, with “(B). The human intestinal Caco-2 cells were grown at 37 °C and 5% CO2 in a humidified atmosphere, and treated and untreated control cells were examined using an inverted phase-contrast microscope (Fisher Scientific Inverted Phase Contrast Microscope EQ-006, Pittsburgh, PA, USA) to assess cell shape and morphology.” for “(B).”

Assay [4] concerns the target T1, human DNA ligase IV (Homo sapiens, UniProt P49917).
T1 sequence (P49917 1-911): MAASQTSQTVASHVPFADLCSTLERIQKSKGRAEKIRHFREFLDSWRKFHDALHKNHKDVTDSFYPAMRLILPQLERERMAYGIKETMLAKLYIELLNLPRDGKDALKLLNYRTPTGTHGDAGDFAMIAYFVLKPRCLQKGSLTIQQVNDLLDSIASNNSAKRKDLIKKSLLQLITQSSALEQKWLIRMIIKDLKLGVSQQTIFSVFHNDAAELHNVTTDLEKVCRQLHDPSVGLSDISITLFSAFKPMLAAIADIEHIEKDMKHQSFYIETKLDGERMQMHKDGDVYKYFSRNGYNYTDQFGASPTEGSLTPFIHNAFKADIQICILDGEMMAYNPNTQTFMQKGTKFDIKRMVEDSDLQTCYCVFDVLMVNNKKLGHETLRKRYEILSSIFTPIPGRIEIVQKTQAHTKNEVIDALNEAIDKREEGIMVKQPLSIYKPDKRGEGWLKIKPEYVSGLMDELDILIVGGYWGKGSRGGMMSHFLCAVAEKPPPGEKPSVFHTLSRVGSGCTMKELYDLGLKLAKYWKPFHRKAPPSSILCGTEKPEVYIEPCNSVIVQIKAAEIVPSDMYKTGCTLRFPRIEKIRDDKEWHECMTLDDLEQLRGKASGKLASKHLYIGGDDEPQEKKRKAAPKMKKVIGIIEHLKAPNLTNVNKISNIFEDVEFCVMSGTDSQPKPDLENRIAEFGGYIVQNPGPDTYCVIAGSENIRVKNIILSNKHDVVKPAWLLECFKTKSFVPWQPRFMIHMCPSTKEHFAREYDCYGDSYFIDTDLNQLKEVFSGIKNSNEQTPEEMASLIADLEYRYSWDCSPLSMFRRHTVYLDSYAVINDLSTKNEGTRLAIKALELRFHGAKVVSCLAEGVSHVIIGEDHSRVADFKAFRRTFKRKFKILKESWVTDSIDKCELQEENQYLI
Kind of assay: nick-sealing DNA ligase assay, DNA ligase IV. It is filed as biochemical. Particulars: ATP 10 μM, DNA substrate 50 nM; read-out: IC50 against human DNA ligase IV (converted). The method, then:
(§4) To validate the results from the molecular modeling studies, we also tested the effects of rutin on human DNA ligase III and IV activity.
(§5) Figure 6 The effects of rutin on human DNA ligases III and IV activities. DNA ligase assays were performed in reaction mixtures in the presence of ATP (10 μM), DNA substrate (50 nM), and human DNA ligase I (0.5 nM) as previously described.
as §1, §2

Assay [5] deals with T2, human DNA ligase III (Homo sapiens, UniProt P49916).
T2 sequence (P49916 43-1009): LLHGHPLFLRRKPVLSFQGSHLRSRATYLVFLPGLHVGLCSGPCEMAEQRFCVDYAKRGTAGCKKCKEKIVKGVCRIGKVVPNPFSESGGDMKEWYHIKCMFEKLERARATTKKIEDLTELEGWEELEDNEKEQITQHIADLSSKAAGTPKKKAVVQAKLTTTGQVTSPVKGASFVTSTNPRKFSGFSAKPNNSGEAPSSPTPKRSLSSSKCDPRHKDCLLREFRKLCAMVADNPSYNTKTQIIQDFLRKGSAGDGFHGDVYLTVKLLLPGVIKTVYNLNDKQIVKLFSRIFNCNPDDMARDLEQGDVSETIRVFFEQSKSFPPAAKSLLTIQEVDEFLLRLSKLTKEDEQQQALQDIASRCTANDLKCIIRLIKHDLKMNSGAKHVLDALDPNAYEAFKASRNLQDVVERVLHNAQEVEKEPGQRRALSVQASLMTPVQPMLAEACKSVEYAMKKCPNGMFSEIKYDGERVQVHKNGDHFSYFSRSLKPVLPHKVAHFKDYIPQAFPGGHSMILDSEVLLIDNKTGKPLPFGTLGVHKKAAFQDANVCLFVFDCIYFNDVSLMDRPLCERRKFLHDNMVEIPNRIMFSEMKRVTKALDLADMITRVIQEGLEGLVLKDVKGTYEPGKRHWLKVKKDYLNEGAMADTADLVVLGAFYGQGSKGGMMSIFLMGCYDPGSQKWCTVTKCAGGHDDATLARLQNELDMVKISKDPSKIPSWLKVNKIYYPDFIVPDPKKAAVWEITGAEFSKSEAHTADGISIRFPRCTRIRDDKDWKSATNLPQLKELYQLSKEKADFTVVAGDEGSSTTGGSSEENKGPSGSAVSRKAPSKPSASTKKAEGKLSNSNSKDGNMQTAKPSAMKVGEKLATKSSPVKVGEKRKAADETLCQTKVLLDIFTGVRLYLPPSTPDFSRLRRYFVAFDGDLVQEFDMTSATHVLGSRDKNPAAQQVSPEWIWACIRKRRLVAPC
Kind of assay: nick-sealing DNA ligase assay, DNA ligase III. Particulars: ATP 10 μM, DNA substrate 50 nM; read-out: IC50 against human DNA ligase III (converted). It is filed as biochemical. The method, then: as §4, §5, §1, §2

In brackets after ≈: the same amount, converted by molar mass.

human DNA ligase I, sequence (P18858 whole entry): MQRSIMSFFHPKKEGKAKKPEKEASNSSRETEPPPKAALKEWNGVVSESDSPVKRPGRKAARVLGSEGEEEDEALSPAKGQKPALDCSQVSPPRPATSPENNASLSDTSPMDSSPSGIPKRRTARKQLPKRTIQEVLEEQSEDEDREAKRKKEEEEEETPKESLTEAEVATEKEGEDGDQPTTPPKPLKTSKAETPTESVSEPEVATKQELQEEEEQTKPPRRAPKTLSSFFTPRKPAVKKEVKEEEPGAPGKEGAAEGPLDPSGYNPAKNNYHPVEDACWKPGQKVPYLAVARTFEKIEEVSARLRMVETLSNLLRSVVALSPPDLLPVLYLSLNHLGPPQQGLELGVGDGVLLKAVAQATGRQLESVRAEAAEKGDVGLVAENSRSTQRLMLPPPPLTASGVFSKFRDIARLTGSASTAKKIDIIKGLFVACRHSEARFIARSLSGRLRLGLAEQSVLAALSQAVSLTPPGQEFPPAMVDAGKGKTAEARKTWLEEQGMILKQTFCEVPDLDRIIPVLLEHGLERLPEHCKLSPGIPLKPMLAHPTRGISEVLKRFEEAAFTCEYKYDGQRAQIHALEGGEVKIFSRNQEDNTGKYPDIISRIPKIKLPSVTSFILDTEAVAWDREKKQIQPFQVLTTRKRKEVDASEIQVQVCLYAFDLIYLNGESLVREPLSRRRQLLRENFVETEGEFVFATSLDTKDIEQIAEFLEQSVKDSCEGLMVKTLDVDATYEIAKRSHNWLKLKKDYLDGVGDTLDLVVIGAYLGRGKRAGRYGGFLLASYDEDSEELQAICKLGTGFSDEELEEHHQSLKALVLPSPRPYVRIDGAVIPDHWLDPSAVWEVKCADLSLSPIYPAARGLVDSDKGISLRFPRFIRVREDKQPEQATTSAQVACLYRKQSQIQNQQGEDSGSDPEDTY

A word on the IC50: it is the concentration needed to halve the response being measured. In the case of `Oc1cc(O)c2cc(O)c(-c3ccc(O)c(O)c3)[o+]c2c1` [cyanidin], in assay [1], the IC50 was around 3480 nM.
On the same count and under the same terms, the figure for `Oc1cc(O)c2c(c1)O[C@H](c1cc(O)c(O)c(O)c1)[C@H](O)C2` [epigallocatechin] is 1630 nM; for `O=c1c(O)c(-c2ccc(O)c(O)c2)oc2cc(O)cc(O)c12` [quercetin] it is 1650 nM.
Take `COc1cc(O)c2cc(O)c(-c3ccc(O)c(OC)c3)[o+]c2c1` [rosinidin]: the “activity against human DNA ligase I” value in assay [1] is on record as “little activity”.
For `C[C@@H]1O[C@@H](OC[C@H]2O[C@@H](Oc3c(-c4ccc(O)c(O)c4)oc4cc(O)cc(O)c4c3=O)[C@H](O)[C@@H](O)[C@@H]2O)[C@H](O)[C@H](O)[C@H]1O` [rutin], the “levels of γH2AX protein” value in assay [2] was “increases levels of γH2AX protein in a dose-dependent manner”. Besides, in assay [3] (Caco-2 cells, 48 h, concentrations lower than IC50), the “effect on cell growth” value is “inhibitory effect on cell growth”. Also, the IC50 in assay [3] (Homo sapiens, Caco-2) was 25 µg/mL (≈ 40.9 µM); in assay [4], 1640 nM; in assay [1], 4910 nM; in assay [5] it was 819 nM.

(Values after publication PMC11855144, “Role of Human DNA Ligases in Mediating Pharmacological Activities of Flavonoids” (International Journal of Molecular Sciences, 2025).)
